Experimental data reported in patent US9340559B2, “Proteasome inhibitor delanzomib for use in the treatment of lupus” (Cephalon, Inc., priority 2011, dated 2016).
Where two headings read alike, the source gives them in different places.

Tests used:
Format in all cases: in vivo, mouse
MRL/lpr mice [1] = assay: Urinalysis: total urine protein (proteinuria), MRL/lpr mice
Experimental: Urine samples are acid precipitated for total protein recovery and analysis. Samples for which enough urine remained are used for Uristix® leukouria analysis. Briefly, a standard protein solution is prepared from normal mouse sera and is used as a standard for mouse urinary protein assay by turbidity. Standard preparation is as follows: 0, 5, 10, 15, 20, 30, 40, and 50 μL of a 4 mg/mL mouse sera standard protein solution as provided in the kit are added in duplicate into two columns. PBS is added to individual wells to adjust the final volume to 50 μL. For urine sample preparation, urine samples are centrifuged at 9880×g for 3 minutes using a tabletop micro-centrifuge. Urine supernatant (1-50 μL) is added in duplicate. PBS is added to adjust the volume to 50 μL total. For the turbidity assay: 25 μL of 0.1 N HCl is added into blank columns and 250 μL of 3% sulfosalicyclic acid into the test columns. The microplate is incubated for 10 minutes at RT and plates are read using an ELISA reader with single beam at 450 nm. For the Uristix® strip assay, strips are laid out and labeled. Twenty microliters of urine are placed onto each test strip square and incubated for at least 30 seconds before the result is recorded. For all total urine analysis plate-based assays, values below the limit of detection set by the lowest point along the standard or set by the manufacturer are considered out of range and are not estimated, but assumed the lowest point along the standard curve for that particular assay.

NZM mice [2] = assay: Antinuclear antibody (ANA) ELISA (anti-chromatin, anti-Smith Ag, anti-dsDNA), serum of NZM mice (Example 2)
NZM mice [3] = tested on: NZM mice
MRL/lpr mice [4] = assay: Renal histopathology scoring (kidney IC-GN), MRL/lpr mice
Experimental: For histological analyses, the left kidney from each animal is removed and fixed in 10% buffered neutral 10% formalin (EMD) for 48 hours on an orbital rocker at 25° C., then washed overnight with running dH2O and stored in 70% ethanol at 4° C. until ready to be processed. Kidney stains used for histological analyses included hematoxylin and eosin (H&E), Periodic Acid Schiff (PAS) and Trichrome stains (Wistar Institute, Philadelphia, Pa.). All 3 stained sections are used by the pathologist for scoring purposes. All histological scoring is performed blinded and by an independent board certified veterinary medical pathologist (Julie Engiles, VMD, DACVP). Multiple stains are used to determine score values. Images in FIG. 17 show worst affected area of section selected blindly by the pathologist.
Kidney IC-GN Scoring Method (Smith, Dong et al. 2007):
1. Glomerular cellularity—Score 1-5: Null, low, moderate, high, severe
2. Glomerular necrosis—Score 1-5: Null, low, moderate, high, severe
3. Glomerulosclerosis—Score 1-5: Null, low, moderate, high, severe
4. Interstitial infiltration—Score 1-5: Null, low, moderate, high, severe
5. Tubular atrophy—Score 1-5: Null, low, moderate, high, severe
6. Interstitial fibrosis—Score 1-5: Null, low, moderate, high, severe
7. Vasculitis—Score 1-5: Null, low, moderate, high, severe
Specific Pathologist Definitions: • Necrosis is defined by the presence of nuclear debris/pyknosis within the glomerular tuft indicative of “necrosis.” In many samples, this is a very mild, rare finding within only a very few segments of the glomerular tuft. Also consider effacement of the glomerular tuft by PAS positive, Trichrome negative material necrosis. • Glomerular sclerosis is defined by increased fibroplasia or fibrosis within the glomerular tuft or capsule. […] Most of the vascular changes are mild and could be considered “arteriosclerosis” characterized by proliferation of the smooth muscle cells, and hyalinization of the extracellular matrix. This change may reflect hypertension secondary to glomerular pathology. In very few animals is there overt “vasculitis.” Most inflammatory changes are within the walls of the blood vessels, with little to no damage to the endothelium, and no overt hemorrhage/fibrin leakage. Many also have perivascular rims of fibroblasts.

How did the “Urine AUC proteinuria, percent change vs vehicle” value (MRL/lpr mice [1]; G4: 0.5 mg/kg iv, 1× wk) turn out when `CC(C)C[C@H](NC(=O)[C@H](Cc1ccccc1)NC(=O)c1cnccn1)B(O)O` [bortezomib, reference compound] was run?
Its value is −55%.

What about the “Urine AUC proteinuria, percent change vs vehicle” value (MRL/lpr mice [1]; G5: 0.3 mg/kg iv, 2× wk) of the same compound?
The value was −50%.

And the “proteinuria decrease relative to vehicle” value (MRL/lpr mice [1]; treated weekly with bortezomib)?
Its value is 55%.

What about the “ANA Smith Ag AUC, percent change vs vehicle” value (NZM mice [2]; G3 0.3 mg/kg ip, 1× wk) of the same compound?
Its value is −22%.

What about the “ANA chromatin AUC, percent change vs vehicle” value (NZM mice [2]; G3 0.3 mg/kg ip, 1× wk) of the same compound?
The value was 113%.

What about the “ANA dsDNA AUC, percent change vs vehicle” value (NZM mice [2]; G3 0.3 mg/kg ip, 1× wk) of the same compound?
Its value is 95%.

What about the “ANA Smith Ag AUC, percent change vs vehicle” value (NZM mice [2]; G4 0.3 mg/kg ip, 2× wk) of the same compound?
Its value is −53%.

And the “ANA chromatin AUC, percent change vs vehicle” value (NZM mice [2]; G4 0.3 mg/kg ip, 2× wk)?
The value was −22%.

And the “ANA dsDNA AUC, percent change vs vehicle” value (NZM mice [2]; G4 0.3 mg/kg ip, 2× wk)?
Its value is −2%.

And the “reduction in anti-chromatin Ab relative to vehicle, significance” value (NZM mice [2]; bortezomib, Dex or CTX treatment groups)?
Its value is “none of which was significant”.

And the “serum anti-dsDNA Ab increase vs vehicle” value (NZM mice [2]; once weekly bortezomib)?
The value was 95%.

What about the “serum anti-Smith Ag Ab decrease vs vehicle” value (NZM mice [2]; once weekly bortezomib (0.3 mg/kg ip)) of the same compound?
Its value is 22%.

What about the “serum anti-dsDNA Ab decrease vs vehicle” value (NZM mice [2]; twice weekly bortezomib) of the same compound?
The value was 2%.

And the “serum anti-chromatin Ab decrease vs vehicle” value (NZM mice [2]; twice weekly bortezomib (0.3 mg/kg ip))?
Its value is 22%.

What about the “Cytokine IL-12 AUC, percent change vs vehicle” value (NZM mice [3]; G3 0.3 mg/kg ip, 1× wk) of the same compound?
The value was −32%.

And the “Cytokine IL-13 AUC, percent change vs vehicle” value (NZM mice [3]; G3 0.3 mg/kg ip, 1× wk)?
The value was −66%.

And the “Cytokine IL-17A AUC, percent change vs vehicle” value (NZM mice [3]; G3 0.3 mg/kg ip, 1× wk)?
The value was −73%.

And the “Cytokine IP-10 AUC, percent change vs vehicle” value (NZM mice [3]; G3 0.3 mg/kg ip, 1× wk)?
The value was −50%.

And the “Cytokine MIG AUC, percent change vs vehicle” value (NZM mice [3]; G3 0.3 mg/kg ip, 1× wk)?
The value was −67%.

And the “Cytokine TNFα AUC, percent change vs vehicle” value (NZM mice [3]; G3 0.3 mg/kg ip, 1× wk)?
Its value is 12%.

And the “Cytokine IL-12 AUC, percent change vs vehicle” value (NZM mice [3]; G4 0.3 mg/kg ip, 2× wk)?
Its value is −55%.

What about the “Cytokine IL-13 AUC, percent change vs vehicle” value (NZM mice [3]; G4 0.3 mg/kg ip, 2× wk) of the same compound?
The value was −65%.

And the “Cytokine IL-17A AUC, percent change vs vehicle” value (NZM mice [3]; G4 0.3 mg/kg ip, 2× wk)?
The value was −85%.

And the “Cytokine IP-10 AUC, percent change vs vehicle” value (NZM mice [3]; G4 0.3 mg/kg ip, 2× wk)?
Its value is −59%.

And the “Cytokine MIG AUC, percent change vs vehicle” value (NZM mice [3]; G4 0.3 mg/kg ip, 2× wk)?
Its value is −72%.

And the “Cytokine TNFα AUC, percent change vs vehicle” value (NZM mice [3]; G4 0.3 mg/kg ip, 2× wk)?
The value was −29%.

What about the “p, serum IL-12p40/p70 concentration vs G9 Vehicle 1× wk ip” value (NZM mice [3]; G5 0.3 mg/kg 1× wk ip) of the same compound?
Its value is “NS (NS = not significant (p > 0.05))”.

And the “p, serum IL-13 concentration vs G9 Vehicle 1× wk ip” value (NZM mice [3]; G5 0.3 mg/kg 1× wk ip)?
Its value is “NS (NS = not significant (p > 0.05))”.

What about the “p, serum IL-17A concentration vs G9 Vehicle 1× wk ip” value (NZM mice [3]; G5 0.3 mg/kg 1× wk ip) of the same compound?
The value was “NS (NS = not significant (p > 0.05))”.

And the “p, serum IP-10 concentration vs G9 Vehicle 1× wk ip” value (NZM mice [3]; G5 0.3 mg/kg 1× wk ip)?
Its value is “p < 0.001”.

And the “p, serum MIG concentration vs G9 Vehicle 1× wk ip” value (NZM mice [3]; G5 0.3 mg/kg 1× wk ip)?
Its value is “NS (NS = not significant (p > 0.05))”.

And the “p, serum TNFα concentration vs G9 Vehicle 1× wk ip” value (NZM mice [3]; G5 0.3 mg/kg 1× wk ip)?
Its value is “NS (NS = not significant (p > 0.05))”.

What about the “p, serum IL-12p40/p70 concentration vs G9 Vehicle 1× wk ip” value (NZM mice [3]; G6 0.3 mg/kg 2× wk ip) of the same compound?
The value was “p < 0.05”.

And the “p, serum IL-13 concentration vs G9 Vehicle 1× wk ip” value (NZM mice [3]; G6 0.3 mg/kg 2× wk ip)?
Its value is “NS (NS = not significant (p > 0.05))”.

And the “p, serum IL-17A concentration vs G9 Vehicle 1× wk ip” value (NZM mice [3]; G6 0.3 mg/kg 2× wk ip)?
The value was “NS (NS = not significant (p > 0.05))”.

And the “p, serum IP-10 concentration vs G9 Vehicle 1× wk ip” value (NZM mice [3]; G6 0.3 mg/kg 2× wk ip)?
Its value is “p < 0.001”.

And the “p, serum MIG concentration vs G9 Vehicle 1× wk ip” value (NZM mice [3]; G6 0.3 mg/kg 2× wk ip)?
Its value is “NS (NS = not significant (p > 0.05))”.

What about the “p, serum TNFα concentration vs G9 Vehicle 1× wk ip” value (NZM mice [3]; G6 0.3 mg/kg 2× wk ip) of the same compound?
The value was “NS (NS = not significant (p > 0.05))”.

What about the “serum IL-12 decrease vs vehicle, range over the substance's groups” value (NZM mice [3]; once and twice weekly groups) of the same compound?
Its value is 32-55%.

What about the “serum CXCL9/MIG as compared to CTX” value (NZM mice [3]; p<0.001 vs CTX, but not to DEX) of the same compound?
Its value is “decreased”.

And the “IL-13 serum levels compared to vehicle” value (NZM mice [3]; treatment groups)?
The value was “No significant change”.

What about the “IL-17A serum levels compared to vehicle” value (NZM mice [3]; treatment groups) of the same compound?
Its value is “No significant change”.

What about the “EOS glomerular cellularity, percent change vs vehicle” value (MRL/lpr mice [4]; G4: 0.5 mg/kg iv, 1× wk) of the same compound?
Its value is −31%.

And the “EOS glomerular necrosis, percent change vs vehicle” value (MRL/lpr mice [4]; G4: 0.5 mg/kg iv, 1× wk)?
The value was −28%.

And the “EOS glomerulosclerosis, percent change vs vehicle” value (MRL/lpr mice [4]; G4: 0.5 mg/kg iv, 1× wk)?
Its value is −42%.

What about the “EOS interstitial infiltration, percent change vs vehicle” value (MRL/lpr mice [4]; G4: 0.5 mg/kg iv, 1× wk) of the same compound?
Its value is −47%.

What about the “EOS vasculitis, percent change vs vehicle” value (MRL/lpr mice [4]; G4: 0.5 mg/kg iv, 1× wk) of the same compound?
Its value is −42%.

And the “Kidney EOS interstitial fibrosis, percent change vs vehicle” value (MRL/lpr mice [4]; G4: 0.5 mg/kg iv, 1× wk)?
The value was −46%.

What about the “Kidney EOS tubular atrophy, percent change vs vehicle” value (MRL/lpr mice [4]; G4: 0.5 mg/kg iv, 1× wk) of the same compound?
Its value is −50%.

What about the “EOS glomerular cellularity, percent change vs vehicle” value (MRL/lpr mice [4]; G5: 0.3 mg/kg iv, 2× wk) of the same compound?
Its value is −15%.

And the “EOS glomerular necrosis, percent change vs vehicle” value (MRL/lpr mice [4]; G5: 0.3 mg/kg iv, 2× wk)?
Its value is −25%.

And the “EOS glomerulosclerosis, percent change vs vehicle” value (MRL/lpr mice [4]; G5: 0.3 mg/kg iv, 2× wk)?
Its value is −18%.

And the “EOS interstitial infiltration, percent change vs vehicle” value (MRL/lpr mice [4]; G5: 0.3 mg/kg iv, 2× wk)?
Its value is −39%.

What about the “EOS vasculitis, percent change vs vehicle” value (MRL/lpr mice [4]; G5: 0.3 mg/kg iv, 2× wk) of the same compound?
The value was −21%.

And the “Kidney EOS interstitial fibrosis, percent change vs vehicle” value (MRL/lpr mice [4]; G5: 0.3 mg/kg iv, 2× wk)?
Its value is −27%.

What about the “Kidney EOS tubular atrophy, percent change vs vehicle” value (MRL/lpr mice [4]; G5: 0.3 mg/kg iv, 2× wk) of the same compound?
The value was −27%.

And the “maximum reduction of renal interstitial infiltration vs vehicle” value (MRL/lpr mice [4]; bortezomib groups)?
The value was 47%.

And the “decrease in average renal pathology score vs vehicle” value (MRL/lpr mice [4]; treated weekly with bortezomib)?
Its value is 1.68 fold.
